Test: Percent bioavailability after intraduodenal injection in anesthetized rats, (AUC)0-90 min relative to i.v.
Conditions: male, Sprague-Dawley, rat, in vivo, other: intraduodenal injection, 2.5 mg per animal, pH 5, Control (no adjuvant), intraduodenal injection 0.25 ml, drug 10 mg/ml, pH 5, ionic strength 0.3, AUC 0-90 min vs i.v., read-out: Percent Bioavailability (% BA)
Description: The following tests were run showing Percent Bioavailability (% BA)
The above tests were done according to the following protocol:
Animals: Male Sprague-Dawley rats (200-250 g)
Anesthesia: Ethyl carbamate by i.m. injection
Blood 0.6 ml from external jugular vein at
(AUC)o^90 calculated from summation
For the oral test an intraduodenal injection 1.0 cm distal to the pylorus was done . The volume of the injection was 0.25 ml at 0.3 ionic strength (adjusted with sodium chloride) and a pH of 5.
The drug was administered at 10 mg/ml unless otherwise noted and the adjuvant at 20 mg/ml unless otherwise noted.
The (AUC)i.v. was determined for each drug, based on the mean value from 3-6 animals.

bioavailability: 1%
SMILES: CC(C)[C@@H]1NC(=O)[C@H](CCCCN)NC(=O)[C@@H](Cc2c[nH]c3ccccc23)NC(=O)[C@H](Cc2ccc(O)cc2)NC(=O)[C@H](C)N(C)C(=O)[C@H](Cc2ccccc2)NC1=O [Cyclo-(N-Me-Ala-Tyr-D-Trp-Lys-Val-Phe)]
